Measurements: patent US9127035B2, “Compounds for use in the treatment of bacterial infection” (THE ROYAL INSTITUTION FOR THE ADVANCEMENT OF …, priority 2011, dated 2015)
Where two headings read alike, the source gives them in different places.

Columns and labels:
[1] = system: Enterococcus faecium ATCC 19434 which expresses AAC(6′)-li naturally; experiment: Checkerboard assay, potentiation of kanamycin A on a resistant strain; type: cell-based; conditions: for effect on the MIC50 of kanamycin A: compound 512 μg/ml combined with kanamycin A, compared to kanamycin A alone
Description: General biological methods. Enterococcus faecium ATCC 19434, Staphylococcus aureus ATCC 29213 and 43300, Acinetobacter baumannii ATCC 19606, Pseudomonas aeruginosa ATCC 27853, Klebsiella penumoniae ATCC 13883, and Escherichia coli ATCC 25922 and 11775 were all purchased from Cedarlane (Burlington, ON). E. faecium was grown in Difco brain heart infusion media (BD, Mississauga, ON), S. aureus and P. aeruginosa were grown in Trypticase soy media (BD, Mississauga, ON), and E. coli, A. baumannii, and K. pneumoniae were grown in Nutrient media (BD, Mississauga, ON). Antibacterial tests were performed using Falcon™ Black with Clear Bottom 96-well Microtest™ Optilux plates (BD, Mississauga, ON).
(§1) Checkerboard assay to determine the synergistic activity of compounds 3a-f with kanamycin A or tobramycin on a resistant strain. A two dimensional checkerboard MIC assay was carried out as previously described [Gao F, Yan X, Shakya T, Baettig O M, Ait-Mohand-Brunet S, Berghuis A M, Wright G D, Auclair K; J Med Chem, 2006, 49:5273-5281] to observe for the potentiation activity of compounds 3a-f towards the antibacterial activity of kanamycin A or tobramycin against Enterococcus faecium ATCC 19434 which expresses AAC(6′)-li naturally, or an E. coli strain engineered to express AAC(6)-li. Compounds 3a-f were diluted by 2-fold sequential dilutions to create a gradient from 32 to 512 μg/mL while the concentrations used for kanamycin A or tobramycin were 0, 10, 20, 40, 50, 100, 150, 200, 250, and 300 μg/mL. The cultures were grown at 37° C. for 16 h in 96-well plates, and then monitored for optical density at 600 nm using a Spectramax 190 microplate reader (Molecular Devices, Sunnyvale, Calif.). Data was normalized against a positive growth control and reported as a percentage of bacterial cell growth. All data points are from quadruplicate experiments.

PanK, PPAT and DPCK = experiment: Biosynthetic in vitro assay with a mixture of PanK, PPAT and DPCK enzymes; type: biochemical; conditions: substrate 5.0 mM, 3 hours at room temperature; HPLC, approximate ± 5%, duplicate
Description: Biosynthetic in vitro assay with a mixture of PanK, PPAT and DPCK enzymes. The E. coli enzymes pantothenate kinase (PanK or coaA enzyme), phosphopantetheine adenylyltransferase (PPAT or coaD enzyme), and dephosphocoenzyme A kinase (DPCK or coaE enzyme) were expressed and purified as previously described [Geerlof A, Lewendon A, Shaw W V J Biol Chem 1999, 274:27105-27111]. Each reaction mixture (500 μL) contained ATP (5.0 mM), KCl (20 mM), MgCl2 (10 mM), DTT (2.0 mM), PanK (5 μg, 278 nM), PPAT (5 μg, 500 nM), DPCK (5 μg, 454 nM) in Tris-Cl Buffer (50 mM, pH 7.6). The reaction was initiated with the addition of pantetheine (5.0 mM) for comparison, water as a negative control, or compounds 3a-e (5.0 mM). Reactions were incubated for 3 hours at room temperature and then stopped by heating the mixture to 95° C. for 5 min. The precipitated protein was removed by centrifugation (13,000 rpm for 5 min) and the supernatant was analyzed by LC/MS. Reversed-phase analytical HPLC was performed with an analytical 4.60×250 mm, SYNERGI 4p Hydro-RP 80A (Phenomenex, Torrance, Calif.) column coupled to an Agilent 6120 Quadrupole LC/MS system for ESI-MS analysis. The HPLC conditions had the sample eluted at a flow rate of 0.5 mL min^−1 using a combination of mobile phase A (H2O) and mobile phase B (acetonitrile), Elution conditions are as follows: isocratic 1% phase B from 0-3 min; followed by the following linear gradients of phase B: 1-10% from 3-5 min; 10-15% from 5-10 min; 15-30% from 10-13 min; an finally isocratic phase B at 30% from 13-26 min. The detector was set to 214 nm. These experiments were run in duplicate.

[2] = molecular target: T1, E. coli pantothenate kinase (PanK or coaA enzyme) (Escherichia coli, UniProt P0A6I3); experiment: PanK enzyme assay (Michaelis-Menten kinetics); type: biochemical; conditions: transformation by PanK; 25° C., Tris-HCl pH 7.6; triplicate
T1 construct: made in house
T1 sequence (P0A6I3 1-316): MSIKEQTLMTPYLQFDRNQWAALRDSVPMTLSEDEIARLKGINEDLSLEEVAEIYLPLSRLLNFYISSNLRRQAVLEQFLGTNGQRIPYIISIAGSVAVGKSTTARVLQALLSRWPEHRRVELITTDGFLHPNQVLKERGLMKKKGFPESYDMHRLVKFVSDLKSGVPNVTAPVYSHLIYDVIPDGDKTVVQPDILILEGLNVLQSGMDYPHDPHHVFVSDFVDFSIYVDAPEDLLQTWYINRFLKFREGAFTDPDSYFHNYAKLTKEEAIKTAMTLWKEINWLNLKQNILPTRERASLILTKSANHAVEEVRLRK
Description: PanK enzyme assay. The E. coli pantothenate kinase (PanK or coaA enzyme) was expressed and purified as previously described. Enzyme activity was measured as described in the literature [Strauss E, Begley T P J Biol Chem, 2002, 277:48205-48209]. This assay couples the production of ADP to the consumption of NADH through the activity of pyruvate kinase and lactic dehydrogenase. The decrease of NADH concentration was monitored at 340 nm. Reactions were performed at 25° C. in an Agilent 8453 UV-Vis spectrophotometer coupled to an Agilent 89090A Peltier temperature controller. Kinetic parameters were determined by fitting the rate data into the Michaelis-Menten equation using Prism 4.0 (GraphPad). Each reaction mixture (500 μL) contained ATP (1.5 mM), NADH (0.3 mM), phosphoenolpyruvate (0.5 mM), MgCl2 (10 mM), KCl (20 mM), pyruvate kinase (5 units), lactic dehydrogenase (5 units), and PanK (5 μg, 278 nM) in Tris-HCl buffer (50 mM, pH 7.6). The reaction was initiated by addition of the desired substrate (10-160 μM). All data points are from triplicate experiments.

[3] = system: E. coli (BL21) harbouring AAC(6′)-li resistance gene in pET-22b(+) vector; experiment: Checkerboard assay, potentiation of tobramycin on engineered E. coli; type: cell-based; conditions: tobramycin combined with compound; E. coli engineered to express AAC(6′)-li
Description: as §1

[4] = molecular target: T1, E. coli pantothenate kinase (PanK or coaA enzyme); conditions: natural substrates of PanK; literature values (footnotes a, b); cited from earlier work

SMILES | effect on the MIC50 of kanamycin A [1] | Compounds detected by LC-MS: 6a-e, relative percentage (PanK, PPAT and DPCK) [%] | Compounds detected by LC-MS: 7a-e, relative percentage (PanK, PPAT and DPCK) [%] | Compounds detected by LC-MS: 2a-e, relative percentage (PanK, PPAT and DPCK) [%] | also measured
CC(C)(CO)[C@@H](O)C(=O)NCCC(=O)NCCSCC(=O)NC[C@H]1O[C@H](O[C@H]2[C@H](O)[C@@H](O)[C@H](N)C[C@@H]2N)[C@H](N)[C@@H](O)[C@@H]1O [Compound 3a, Neamine 6′-N—(R)-(3-((2-((2-amino-2-oxoethyl)thio)ethyl)amino)-3-oxopropyl)-2,4-dihydroxyl-3,3-dimethylbutanamide] | negligible effect | 5 | 25 | – | Compounds detected by LC-MS: 3a-e (starting material), relative percentage (PanK, PPAT and DPCK): 70%; Km [2]: ≥ 500 µM
CC(C)(CO)[C@@H](O)C(=O)NCCC(=O)NCCSCCC(=O)NC[C@H]1O[C@H](O[C@H]2[C@H](O)[C@@H](O)[C@H](N)C[C@@H]2N)[C@H](N)[C@@H](O)[C@@H]1O [Compound 3b, Neamine 6′-N—(R)-(3-((2-((2-amino-2-oxopropyl)thio)ethyl)amino)-3-oxopropyl)-2,4-dihydroxyl-3,3-dimethylbutanamide] | – | 20 | 70 | 10 | –
CC(C)(CO)[C@@H](O)C(=O)NCCC(=O)NCCSCCCC(=O)NC[C@H]1O[C@H](O[C@H]2[C@H](O)[C@@H](O)[C@H](N)C[C@@H]2N)[C@H](N)[C@@H](O)[C@@H]1O [Compound 3c, Neamine 6′-N—(R)-(3-((2-((2-amino-2-oxobutyl)thio)ethyl)amino)-3-oxopropyl)-2,4-dihydroxyl-3,3-dimethylbutanamide] | – | 5 | 40 | 55 | dose dependence of the potentiation of kanamycin A ([1]; compound 32 to 512 μg/mL with kanamycin A): dose-dependent effect
CC(C)(CO)[C@@H](O)C(=O)NCCC(=O)NCCSCCCCC(=O)NC[C@H]1O[C@H](O[C@H]2[C@H](O)[C@@H](O)[C@H](N)C[C@@H]2N)[C@H](N)[C@@H](O)[C@@H]1O [Compound 3d, Neamine 6′-N—(R)-(3-((2-((2-amino-2-oxopentyl)thio)ethyl)amino)-3-oxopropyl)-2,4-dihydroxyl-3,3-dimethylbutanamide] | drop by half | – | 10 | 90 | reduction in the MIC of tobramycin [3]: 10 fold
CC(C)(CO)[C@@H](O)C(=O)NCCC(=O)NCCSCCCCCC(=O)NC[C@H]1O[C@H](O[C@H]2[C@H](O)[C@@H](O)[C@H](N)C[C@@H]2N)[C@H](N)[C@@H](O)[C@@H]1O [Compound 3e, Neamine 6′-N—(R)-(3-((2-((2-amino-2-oxohexyl)thio)ethyl)amino)-3-oxopropyl)-2,4-dihydroxyl-3,3-dimethylbutanamide] | drop by half | – | 20 | 80 | –
CC(C)(CO)[C@@H](O)C(=O)NCCC(=O)NCCS [Pantetheine] | – | – | – | – | kcat [4]: 0.32 ± 0.02^b sec^−1
CC(C)(CO)[C@@H](O)C(=O)NCCC(=O)O [Pantothenic acid] | – | – | – | – | Km [4]: 17 ± 2 µM; kcat [4]: 1.07 ± 0.04^a sec^−1
NC[C@H]1O[C@H](O[C@H]2[C@H](O)[C@@H](O[C@H]3O[C@H](CO)[C@@H](O)[C@H](N)[C@H]3O)[C@H](N)C[C@@H]2N)[C@H](O)[C@@H](O)[C@@H]1O [kanamycin A, reference compound] | – | – | – | – | MIC50 of kanamycin A (minimum concentration causing a 50% growth inhibition) ([1]; kanamycin A alone, in the absence of compounds 3a-e): ~125 µg/mL
